The assay deals with T1, His6-AspH315–758 (human aspartate/asparagine-β-hydroxylase, AspH) (Homo sapiens, UniProt Q12797).
T1 construct: N-Terminally His6-tagged human AspH315–758 (His6-AspH315–758) was produced in E. coli BL21 (DE3) cells; made in house; host or cells: E. coli BL21 (DE3), pET-28a(+) vector
T1 sequence (Q12797 315-758): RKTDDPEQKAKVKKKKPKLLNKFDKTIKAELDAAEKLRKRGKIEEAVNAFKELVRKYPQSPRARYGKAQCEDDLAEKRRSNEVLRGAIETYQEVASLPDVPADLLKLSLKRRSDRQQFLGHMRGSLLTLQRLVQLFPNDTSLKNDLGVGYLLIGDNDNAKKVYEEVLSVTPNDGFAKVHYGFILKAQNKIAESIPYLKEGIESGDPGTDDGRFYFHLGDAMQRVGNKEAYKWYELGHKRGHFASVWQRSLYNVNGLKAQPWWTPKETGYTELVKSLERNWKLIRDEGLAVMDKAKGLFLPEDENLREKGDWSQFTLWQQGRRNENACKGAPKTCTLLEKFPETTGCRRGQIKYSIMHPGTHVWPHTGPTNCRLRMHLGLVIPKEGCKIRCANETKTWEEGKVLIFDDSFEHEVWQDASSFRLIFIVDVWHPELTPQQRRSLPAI
The assay can be described thus: SPE-MS AspH inhibition assay (LOPAC screen at fixed 20 μM and IC50 dose-response), hydroxylation of cyclic peptide hFX-CP101–119. Type of assay: biochemical.

Where [1] appears, read: LOPAC compound at 20uM, plate 2, conversion of substrate peptide.
[2] abbreviates: LOPAC compound at 20uM, plate 2, normalised to DMSO and 2,4-PDCA controls, read-out: Plate 2 (% inhibition).
Where [3] appears, read: LOPAC Plate 4, compound at 20 uM, substrate conversion.
Where [4] appears, read: LOPAC Plate 4, compound at 20 uM, read-out: % inhibition.
Setting [5] is: LOPAC compound at 20uM, plate 2, normalised to DMSO and 2,4-PDCA controls.
Setting [6] is: LOPAC compound at 20uM, plate 3, conversion of substrate peptide.
[7] abbreviates: LOPAC compound at fixed 20 uM, plate 1, normalised to DMSO and 2,4-PDCA controls.
Setting [8] is: LOPAC compound at fixed 20 uM, substrate conversion, plate 1.
Where [9] appears, read: LOPAC Plate 4, compound at 20 uM.
The mark [10] stands for this setting: plate 5 (Pfitzer), test compounds at fixed 20 μM.
The mark [11] stands for this setting: plate 5 (Pfitzer), test compounds at fixed 20 μM, mean conversion DMSO 32.88.

Where a name gives a salt, the structure may show the parent alone. Read-outs that look alike come from different tables or passages of the source.

Regarding `COC(=O)C1=CO[C@@H](O)[C@@H]2C(CO)=CC[C@H]12` [Genipin], under setting [1], the “Plate 2 (% conversion)” value came to 36.58%. Moreover, under setting [2], the inhibition at 20 µM was -1.85%.

Take `O=c1n(CCCN2CCN(c3cccc(Cl)c3)CC2)nc2ccccn12` [Trazodone hydrochloride]: the “% conversion” value under setting [3] was 39.67%. The inhibition at 20 µM under setting [4] is -9.38%.

With `CC(C)NP(=O)(NC(C)C)OP(=O)(NC(C)C)NC(C)C` [Tetraisopropyl pyrophosphoramide], the “% conversion” value was found to be 27.56%.

Turning to `Cl.Fc1ccc(CN(C2=NCCN2)c2c(Cl)cccc2Cl)cc1` [IMID-4F hydrochloride], the “Plate 2 (% conversion)” value under setting [1] was found to be 39.35%. Moreover, the “Plate 2 (% inhibition)” value under setting [5] is -10.13%.

Consider `[H]/N=C(/NC)NCCC[C@H](N)C(=O)O` [NG-Monomethyl-L-arginine acetate], for which the “Plate 3 (% conversion)” value under setting [6] was determined as 38.37%.

Take `Cc1ccc(O)c([C@H](CCN(C(C)C)C(C)C)c2ccccc2)c1` [Tolterodine]: the “Plate 5 (% conversion)” value turned out to be 15.18% and the “Plate 5 (% inhibition)” value turned out to be 62.09%.

For `Cn1c(=O)c2c(ncn2C)n(C)c1=O` [Caffeine], the “Plate 1 (% inhibition)” value under setting [7] is recorded as -5.72%. Also, the “Plate 1 (% conversion)” value under setting [8] was 37.79%.

Take `Nc1ccc(N2C(=O)c3ccccc3C2=O)c(Cl)c1` [N-(4-Amino-2-chlorophenyl)phthalimide]: the “Plate 1 (% inhibition)” value under setting [7] is listed as -9.54%. Further, the “Plate 1 (% conversion)” value under setting [8] is recorded as 39.07%.

`O=C(O)[C@@H]1CCN1` [L-azetidine-2-carboxylic acid]: the “Plate 1 (% conversion)” value turned out to be 39.44% and the “Plate 1 (% inhibition)” value is listed as -10.62%.

Take `CN1C(C(=O)Nc2ccccn2)=C(O)c2ccccc2S1(=O)=O` [Piroxicam]: the “Plate 3 (% conversion)” value under setting [6] was determined as 39.26%.

Consider `CC(=O)[C@H]1CC[C@H]2[C@@H]3CC[C@H]4C[C@H](O)CC[C@]4(C)[C@H]3CC[C@]12C` [5alpha-Pregnan-3alpha-ol-20-one], for which the “% conversion” value was determined as 26.94%.

For the compound `Nc1ccc(CCN2CCN(c3cccc(C(F)(F)F)c3)CC2)cc1` [PAPP], the “% conversion” value came to 42.06%. Moreover, the “% inhibition” value (20 µM) is -16.38%.

For `CC(C)(NS(=O)(=O)c1ccc(Oc2ccc(F)cc2)cc1)C(=O)NO` [CP-471474], the “Plate 5 (% conversion)” value was determined as 38.13% and the “Plate 5 (% inhibition)” value is reported as -5.33%.

As for `C[C@H](c1ccc(F)cc1CCCC(=O)O)N(c1cc(F)ccc1F)S(=O)(=O)c1ccc(Cl)cc1` [BMS-299897], the “% inhibition” value under setting [9] is given as -0.66%. Further, the “% conversion” value under setting [3] is listed as 36.70%.

LY-310,762 hydrochloride: the “Plate 3 (% conversion)” value under setting [6] was found to be 45.55%.

Take `C[n+]1cc2c3c(ccc2c2ccc4cc5c(cc4c21)OCO5)OCO3` [Sanguinarine chloride]: the “% conversion” value came to 10.82%.

Regarding `C[C@H](CS)C(=O)N1CCC[C@H]1C(=O)O` [Captopril], the “Plate 1 (% conversion)” value was 35.34% and the “Plate 1 (% inhibition)” value is reported as 1.58%.

Take `Br.CN1[C@@H]2CC(OC(=O)[C@H](CO)c3ccccc3)C[C@H]1[C@@H]1O[C@@H]12` (single isomer, unassigned; (-)) [(-)-Scopolamine hydrobromide]: the “% inhibition” value (20 µM) is -9.71%.

On to `CCOc1ncc(S(=O)(=O)N2CCN(CC)CC2)cc1-c1nc2c(CC)n(CCOC)nc2c(=O)[nH]1.O=S(=O)(O)c1ccccc1` [Gisadenafil besylate salt], for which the “Plate 1 (% conversion)” value was 43.96% and the “Plate 1 (% inhibition)” value is -24.07%.

As to `C=C(C)[C@H]1CN[C@H](C(=O)O)[C@H]1CC(=O)O` [Kainic acid], the “Plate 3 (% conversion)” value came to 38.81%.

`CCOC(=O)c1ccc(C#Cc2ccc3c(c2)C(C)(C)CCS3)nc1` [Tazarotene]: the “% conversion” value under setting [3] is reported as 39.09%.

For the compound `Cc1ccc(S(=O)(=O)N[C@@H](Cc2ccccc2)C(=O)CCl)cc1`, under setting [9], the “% inhibition” value is reported as -4.78%. Besides, the “% conversion” value under setting [3] is 38.10%.

With `Cc1cc2c(cc1Cl)N(C(=O)Nc1cccc3ncccc13)CC2` [SB-215505], the “Plate 3 (% conversion)” value under setting [6] came to 42.68%.

`O=c1onc2n1-c1cc(Br)ccc1OC2` [NS 2028]: the “Plate 3 (% conversion)” value under setting [6] is 35.06%.

For the compound `COc1ccc(C(=O)NCc2cccnc2)cc1C(=O)NCc1cccnc1` [Picotamide], the “% conversion” value under setting [3] is 30.17%.

Turning to `CN1C(=O)CC[C@H]1c1cccnc1` [(-)-Cotinine], the “Plate 1 (% conversion)” value came to 36.85% and the “Plate 1 (% inhibition)” value was -2.91%.

In the case of `CCn1c(=O)[nH]c2cc(Cl)c(Cl)cc21` [DCEBIO], the “Plate 2 (% conversion)” value under setting [1] came out at 39.27%. Also, under setting [5], the “Plate 2 (% inhibition)” value is reported as -9.89%.

Take `CC1CCN(CC[C@H]2CCCN2S(=O)(=O)c2cccc(O)c2)CC1.Cl` [SB 269970 hydrochloride]: under setting [9], the “% inhibition” value is recorded as -11.63%. The “% conversion” value under setting [3] is 40.44%.

Regarding `O=C(O)C1=CC(=C(c2ccc(O)c(C(=O)O)c2)c2ccc(O)c(C(=O)O)c2)C=CC1=O` [Aurintricarboxylic acid, reference compound], the inhibition at 20 µM (AspH activity, fixed compound concentration 20 μM, initial LOPAC screen, 0.5%v/v DMSO, read-out: Inhibition at 20 µM [%]) came to 104%. Besides, the “Plate 1 (% inhibition)” value under setting [7] was determined as 103.81%. Moreover, the “Plate 1 (% conversion)” value under setting [8] is given as 1.01%.

Turning to `CCCCNC(=O)NS(=O)(=O)c1ccc(C)cc1` [Tolbutamide], under setting [3], the “% conversion” value came out at 37.22%. In addition, the inhibition at 20 µM under setting [4] is -2.2%.

Consider `Cn1c(=O)c2[nH]c(C3CCCC3)nc2n(C)c1=O` [8-Cyclopentyl-1,3-dimethylxanthine], for which, under setting [1], the “Plate 2 (% conversion)” value is listed as 36.70%. Further, the “Plate 2 (% inhibition)” value under setting [5] is recorded as -2.21%.

Regarding `COc1ccc(/C=C2\COc3ccc(C)cc3C2=O)cc1O` [IMS2186], under setting [3], the “% conversion” value is 32.74%.

On to `CC[C@@H](C(N)=O)N1CCCC1=O` [Levetiracetam], for which the “Plate 3 (% conversion)” value is 34.85%.

As to `CN(C)c1nc(N(C)C)nc(N(C)C)n1` [Altretamine], under setting [7], the “Plate 1 (% inhibition)” value is -0.35%. The “Plate 1 (% conversion)” value under setting [8] is given as 35.99%.

For `Cl.NCCc1ccc(S(=O)(=O)F)cc1`, the “Plate 1 (% conversion)” value was 34.69% and the “Plate 1 (% inhibition)” value is 3.52%.

For `Fc1cccc(/C=N/N=C/c2cccc(F)c2)c1` [DFB], the “Plate 3 (% conversion)” value under setting [6] turned out to be 35.73%.

Consider `CC(CCc1ccccc1)NCC(O)c1ccc(O)c(C(N)=O)c1` (centres unmarked) [Labetalol hydrochloride], for which, under setting [6], the “Plate 3 (% conversion)” value came out at 36.38%.

As to `Br.C=CCN1CCc2c(cc(O)c(O)c2Cl)C(c2ccccc2)C1` (racemic) [(±)-Chloro-APB hydrobromide, reference compound], the “Inhibition at 20 µM [%]” value (AspH activity, fixed compound concentration 20 μM, initial LOPAC screen, 0.5%v/v DMSO) is reported as 95.8%. The “Plate 2 (% conversion)” value under setting [1] worked out at 3.87%. Besides, the “Plate 2 (% inhibition)” value under setting [5] worked out at 95.82%.

`COc1cc2nc(N3CCCN(C)CC3)nc(NC3CCN(Cc4ccccc4)CC3)c2cc1OC` [BIX 01294 trihydrochloride hydrate]: the “% inhibition” value under setting [9] is recorded as -9.31%. For the same compound, the “% conversion” value under setting [3] was determined as 39.65%.

On to `Cl.N#Cc1ccc(N2CCN(C(=O)COc3ccc4[nH]cc(CCN)c4c3)CC2)cc1` [Donitriptan monohydrochloride], for which the “Plate 2 (% conversion)” value under setting [1] came to 23.20%. Moreover, the “Plate 2 (% inhibition)” value under setting [5] came out at 38.09%.

In the case of `CN(Cc1cnc2nc(N)nc(N)c2n1)c1ccc(C(=O)N[C@@H](CCC(=O)O)C(=O)O)cc1.O` [Methotrexate hydrate], the “Plate 1 (% inhibition)” value under setting [7] was -3.72%. In addition, the “Plate 1 (% conversion)” value under setting [8] came to 37.12%.

As for `CCCn1c(=O)c2[nH]c(C3CCCC3)nc2n(CCC)c1=O` [8-Cyclopentyl-1,3-dipropylxanthine], the “Plate 2 (% conversion)” value is 38.65%. The “Plate 2 (% inhibition)” value (20 µM) was -8.06%.

For the compound `OCCN1CCN(CCCN2c3ccccc3Sc3ccc(C(F)(F)F)cc32)CC1` [Fluphenazine dihydrochloride], the “Plate 2 (% conversion)” value was determined as 63.32%. Further, the inhibition at 20 µM under setting [2] was -81.7%.

`NNc1nncc2ccccc12` [Hydralazine hydrochloride]: the “Plate 2 (% conversion)” value under setting [1] stood at 38.20%. In addition, the inhibition at 20 µM under setting [2] is -6.7%.

For the compound `N#CC(CCCN1CCN(/N=C/c2cccnc2)CC1)(c1ccccc1)c1ccccc1` [SC-26196], under setting [10], the “Plate 5 (% inhibition)” value came to 23.44%. In addition, the “Plate 5 (% conversion)” value under setting [11] came to 28.34%.

Regarding `CC(C)C[C@H](NP(=O)([O-])O[C@H]1O[C@H](C)[C@@H](O)[C@H](O)[C@@H]1O)C(=O)N[C@@H](Cc1c[nH]c2ccccc12)C(=O)[O-].[Na+].[Na+]` [Phosphoramidon disodium], the “% conversion” value worked out at 33.86%.

Regarding `CN1CCC[C@@H]1Cc1c[nH]c2ccc(CCS(=O)(=O)c3ccccc3)cc12` [Eletriptan], the “Plate 5 (% inhibition)” value under setting [10] is 0.46%. Besides, under setting [11], the “Plate 5 (% conversion)” value is given as 36.16%.

For `CC(C)NCC(O)c1cc(O)cc(O)c1.CC(C)NCC(O)c1cc(O)cc(O)c1.O=S(=O)(O)O` (centres unmarked) [Metaproterenol hemisulfate], under setting [6], the “Plate 3 (% conversion)” value came out at 40.68%.

Values taken from paper PMC7251097, “Aspartate/asparagine-β-hydroxylase: a high-throughput mass spectrometric assay for discovery of small molecule inhibitors” (Scientific Reports, 2020).
